# Assay results reported in ChEMBL document CHEMBL1154382, “Preliminary SAR analysis of novel antiproliferative N(6),5'-bis-ureidoadenosine derivatives” (2009).
# Assays:
# Type in all cases: functional
# NCI-H226 = test: Antiproliferative activity against human NCI-H226 cells
# 786-0 = test: Antiproliferative activity against human 786-0 cells
# SK-MEL-2 = test: Antiproliferative activity against human SK-MEL-2 cells
# DU-145 = test: Antiproliferative activity against human DU145 cells
# Malme-3M = test: Antiproliferative activity against human MALME-3M cells
# HCC 2998 = test: Antiproliferative activity against human HCC2998 cells
# MOLT-4 = test: Antiproliferative activity against human MOLT4 cells
# NCI-H322M = test: Antiproliferative activity against human NCI-H322M cells
# SN12C = test: Antiproliferative activity against human SN12C cells
# UO-31 = test: Antiproliferative activity against human UO31 cells
# A549 = test: Antiproliferative activity against human A549 cells
# K562 = test: Antiproliferative activity against human K562 cells
# SF-268 = test: Antiproliferative activity against human SF268 cells
# SF-295 = test: Antiproliferative activity against human SF295 cells
# MCF7 = test: Antiproliferative activity against human MCF7 cells
# HCT-116 = test: Antiproliferative activity against human HCT116 cells
# TK-10 = test: Antiproliferative activity against human TK10 cells
# SK-OV-3 = test: Antiproliferative activity against human SKOV3 cells
# M14 = test: Antiproliferative activity against human M14 cells
# SR = test: Antiproliferative activity against human SR cells
# ACHN = test: Antiproliferative activity against human ACHN cells
# U-251 = test: Antiproliferative activity against human U251 cells
# KM12 = test: Antiproliferative activity against human KM12 cells
# OVCAR-4 = test: Antiproliferative activity against human OVCAR4 cells
# OVCAR-3 = test: Antiproliferative activity against human OVCAR-3 cells
# T47D = test: Antiproliferative activity against human T47D cells
# SK-MEL-28 = test: Antiproliferative activity against human SK-MEL-28 cells
# MDA-MB-435 = test: Antiproliferative activity against human MDA-MB-435 cells
# NCI-H522 = test: Antiproliferative activity against human NCI-H522 cells
# HT-29 = test: Antiproliferative activity against human HT-29 cells
# NCI-H460 = test: Antiproliferative activity against human NCI-H460 cells
# MDA-MB-231 = test: Antiproliferative activity against human MDA-MB-231 cells
# CCRF-CEM = test: Antiproliferative activity against human CCRF-CEM cells
# OVCAR-8 = test: Antiproliferative activity against human OVCAR8 cells
# HOP-92 = test: Antiproliferative activity against human HOP92 cells
# NCI-H23 = test: Antiproliferative activity against human NCI-H23 cells
# SF-539 = test: Antiproliferative activity against human SF539 cells
# COLO 205 = test: Antiproliferative activity against human COLO205 cells
# OVCAR-5 = test: Antiproliferative activity against human OVCAR5 cells
# SNB-19 = test: Antiproliferative activity against human SNB19 cells
# [1] = Antiproliferative activity against human Hs 578T cells
# BT-549 = test: Antiproliferative activity against human BT549 cells
# [2] = Antiproliferative activity against human […] cells
# IGROV-1 = test: Antiproliferative activity against human IGROV1 cells
# A498 = test: Antiproliferative activity against human A498 cells
# UACC-257 = test: Antiproliferative activity against human UACC257 cells
# CAKI-1 = test: Antiproliferative activity against human Caki1 cells
# HCT-15 = test: Antiproliferative activity against human HCT15 cells
# SNB-75 = test: Antiproliferative activity against human SNB75 cells
# LOX IMVI = test: Antiproliferative activity against human LOXIMVI cells
# HOP-62 = test: Antiproliferative activity against human HOP62 cells
# UACC-62 = test: Antiproliferative activity against human UACC62 cells
# EKVX = test: Antiproliferative activity against human EKVX cells
# SK-MEL-5 = test: Antiproliferative activity against human SK-MEL-5 cells
# SW-620 = test: Antiproliferative activity against human SW620 cells
# HL-60(TB) = test: Antiproliferative activity against human HL-60(TB) cells
# RXF 393 = test: Antiproliferative activity against human RXF393 cells
# PC-3 = test: Antiproliferative activity against human PC3 cells
compound,measurement,setting,value
CNC(=O)NC[C@H]1O[C@@H](n2cnc3c(NC(=O)Nc4ccccc4)ncnc32)[C@H](O[Si](C)(C)C(C)(C)C)[C@@H]1CC(=O)N(C)OC,GI50,NCI-H226,41.9 µM
same,GI50,786-0,9.01 µM
same,GI50,SK-MEL-2,14.9 µM
same,GI50,DU-145,16.6 µM
same,GI50,Malme-3M,11.4 µM
same,GI50,HCC 2998,30.6 µM
same,GI50,MOLT-4,2.23 µM
same,GI50,NCI-H322M,> 100 µM
same,GI50,SN12C,85.3 µM
same,GI50,UO-31,7.79 µM
same,GI50,A549,9.35 µM
same,GI50,K562,3.12 µM
same,GI50,SF-268,8.29 µM
same,GI50,SF-295,9.09 µM
same,GI50,MCF7,5.59 µM
same,GI50,HCT-116,4.2 µM
same,GI50,TK-10,20.5 µM
same,GI50,SK-OV-3,52.7 µM
same,GI50,M14,15.2 µM
same,GI50,SR,1.27 µM
same,GI50,ACHN,14.4 µM
same,GI50,U-251,5.66 µM
same,GI50,KM12,23.9 µM
same,GI50,OVCAR-4,53 µM
same,GI50,OVCAR-3,7.11 µM
same,GI50,T47D,13.9 µM
same,GI50,SK-MEL-28,7.77 µM
same,GI50,MDA-MB-435,10.9 µM
same,GI50,NCI-H522,11.1 µM
same,GI50,HT-29,5.37 µM
same,GI50,NCI-H460,7.49 µM
same,GI50,MDA-MB-231,12.3 µM
same,GI50,CCRF-CEM,6.37 µM
same,GI50,OVCAR-8,9.02 µM
same,GI50,HOP-92,2.71 µM
same,GI50,NCI-H23,57.2 µM
same,GI50,SF-539,22.3 µM
same,GI50,COLO 205,12.3 µM
same,GI50,OVCAR-5,38.2 µM
same,GI50,SNB-19,> 100 µM
same,GI50,[1],5.79 µM
same,GI50,BT-549,29 µM
same,GI50,[2],1.58 µM
same,GI50,IGROV-1,3.72 µM
same,GI50,A498,3.87 µM
same,GI50,UACC-257,22.6 µM
same,GI50,CAKI-1,53.8 µM
same,GI50,HCT-15,6.47 µM
same,GI50,SNB-75,12.7 µM
same,GI50,LOX IMVI,7.3 µM
same,GI50,HOP-62,24.9 µM
same,GI50,UACC-62,41.9 µM
same,GI50,EKVX,26.4 µM
same,GI50,SK-MEL-5,5.81 µM
same,GI50,SW-620,> 100 µM
same,GI50,HL-60(TB),0.00181 µM
same,GI50,RXF 393,9.74 µM
CCOC(=O)C[C@H]1[C@@H](O[Si](C)(C)C(C)(C)C)[C@H](n2cnc3c(NC(=O)Nc4ccccc4)ncnc32)O[C@@H]1CNC(=O)NC,GI50,NCI-H226,> 100 µM
same,GI50,786-0,2 µM
same,GI50,SK-MEL-2,5.42 µM
same,GI50,DU-145,4.97 µM
same,GI50,Malme-3M,10.3 µM
same,GI50,HCC 2998,> 100 µM
same,GI50,MOLT-4,2.39 µM
same,GI50,NCI-H322M,> 100 µM
same,GI50,SN12C,9.1 µM
same,GI50,UO-31,12.1 µM
same,GI50,A549,4.18 µM
same,GI50,K562,3.59 µM
same,GI50,SF-268,6.53 µM
same,GI50,SF-295,5.73 µM
same,GI50,MCF7,3.42 µM
same,GI50,HCT-116,3.2 µM
same,GI50,TK-10,12.4 µM
same,GI50,SK-OV-3,21 µM
same,GI50,M14,2.51 µM
same,GI50,SR,2.23 µM
same,GI50,ACHN,8.55 µM
same,GI50,U-251,4.69 µM
same,GI50,KM12,3.95 µM
same,GI50,OVCAR-4,12.3 µM
same,GI50,OVCAR-3,4.59 µM
same,GI50,T47D,2.55 µM
same,GI50,SK-MEL-28,6.85 µM
same,GI50,MDA-MB-435,6.21 µM
same,GI50,NCI-H522,4.36 µM
same,GI50,HT-29,4.2 µM
same,GI50,NCI-H460,5.54 µM
same,GI50,MDA-MB-231,3.96 µM
same,GI50,CCRF-CEM,6.69 µM
same,GI50,PC-3,2.25 µM
same,GI50,OVCAR-8,4.92 µM
same,GI50,HOP-92,< 0.01 µM
same,GI50,NCI-H23,33.3 µM
same,GI50,SF-539,5.19 µM
same,GI50,COLO 205,3.84 µM
same,GI50,OVCAR-5,31.1 µM
same,GI50,SNB-19,29 µM
same,GI50,[1],3.6 µM
same,GI50,BT-549,> 100 µM
same,GI50,[2],1.09 µM
same,GI50,IGROV-1,3.85 µM
same,GI50,A498,3.34 µM
same,GI50,UACC-257,5.68 µM
same,GI50,CAKI-1,29.7 µM
same,GI50,HCT-15,8.5 µM
same,GI50,SNB-75,4.56 µM
same,GI50,LOX IMVI,5.46 µM
same,GI50,HOP-62,8.96 µM
same,GI50,UACC-62,> 100 µM
same,GI50,EKVX,17.7 µM
same,GI50,SK-MEL-5,4.34 µM
same,GI50,SW-620,4.8 µM
same,GI50,HL-60(TB),0.00301 µM
same,GI50,RXF 393,2.01 µM
